Values after ≈ are worked out from the molar mass of the structure shown.
Legend:
Test in all cases: in vitro antibacterial evaluation, MIC by broth dilution
Format in all cases: cell-based
[1] = tested on: Staphylococcus sp.; settings: broth dilution, 18 hours at 35° C.; for MIC Staphylococcus aureus (GC 1131): strain GC 1131
Summary of the method: (§1)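 MIC, the lowest antibiotic concentration preventing growth, was read across 64-0.06 μg/mL with 5×10^5 CFU/mL inoculum. Method followed NCCLS M7-A2 broth dilution using Mueller-Hinton II; Gram-positive strains covered recent methicillin-, penicillin- and/or vancomycin-resistant clinical isolates.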

[2] = tested on: Escherichia coli
Summary of the method: as §1

[3] = tested on: Enterococcus sp.; settings: broth dilution, 18 hours at 35° C.; for MIC Enterococcus faecalis (ATCC 29212): strain ATCC 29212; for MIC Enterococcus faecalis (GC 2242): strain GC 2242; for MIC Enterococcus faecium (GC 2243): strain GC 2243; for MIC Enterococcus faecalis (GC 2691): strain GC 2691; for MIC Enterococcus faecalis (GC 3059): strain GC 3059; for MIC Enterococcus faecalis (GC 4552): strain GC 4552; for MIC Enterococcus faecalis (GC 4553): strain GC 4553; for MIC Enterococcus faecalis (GC 4554): strain GC 4554; for MIC Enterococcus faecium (GC 4556): strain GC 4556; for MIC Enterococcus faecium (GC 4557): strain GC 4557; for MIC Enterococcus avium (GC 4558): strain GC 4558; for MIC Enterococcus faecalis (GC 6189): strain GC 6189
Summary of the method: as §1

[4] = tested on: Streptococcus sp.; settings: broth dilution, 18 hours at 35° C.; for MIC Streptococcus pneumoniae (ATCC 6301): strain ATCC 6301; for MIC Streptococcus pneumoniae (GC 1894): strain GC 1894; for MIC Streptococcus pyogenes (GC 4563): strain GC 4563; for MIC Streptococcus agalactiae (GC 4564): strain GC 4564; for MIC Streptococcus pneumoniae (GC 4565): strain GC 4565
Summary of the method: as §1

- MIC Staphylococcus aureus (GC 1131) ([1]; inoculum 5×10^5 CFU/mL): 2 µg/mL (≈ 1.34 µM)
- MIC Staphylococcus aureus (ATCC 29213) ([1]; strain ATCC 29213): 1 µg/mL (≈ 0.672 µM)
- MIC Staphylococcus aureus (GC 1131) [1]: 2 µg/mL (≈ 1.34 µM)
- MIC Staphylococcus aureus (GC 3051) ([1]; strain GC 3051): 0.5 µg/mL (≈ 0.336 µM)
- MIC Staphylococcus aureus (GC 3053) ([1]; strain GC 3053): 1 µg/mL (≈ 0.672 µM)
- MIC Staphylococcus aureus (GC 4541) ([1]; strain GC 4541): 0.5 µg/mL (≈ 0.336 µM)
- MIC Staphylococcus aureus (GC 4542) ([1]; strain GC 4542): 0.5 µg/mL (≈ 0.336 µM)
- MIC Staphylococcus aureus-SMITH (GC 4543) ([1]; strain GC 4543): 0.5 µg/mL (≈ 0.336 µM)
- MIC Staphylococcus aureus (GC 4544) ([1]; strain GC 4544): 2 µg/mL (≈ 1.34 µM)
- MIC Staphylococcus aureus (GC 4545) ([1]; strain GC 4545): 2 µg/mL (≈ 1.34 µM)
- MIC Coagulase Negative Staphylococcus (GC 4547) ([1]; strain GC 4547): 2 µg/mL (≈ 1.34 µM)
- MIC Coagulase Negative Staphylococcus (GC 4548) ([1]; strain GC 4548): 0.5 µg/mL (≈ 0.336 µM)
- MIC Coagulase Negative Staphylococcus (GC 4549) ([1]; strain GC 4549): 0.25 µg/mL (≈ 0.168 µM)
- MIC Coagulase Negative Staphylococcus (GC 4551) ([1]; strain GC 4551): 0.5 µg/mL (≈ 0.336 µM)
- MIC Coagulase Negative Staphylococcus (GC 6257) ([1]; strain GC 6257): 0.5 µg/mL (≈ 0.336 µM)
- MIC Escherichia coli (ATCC 25922) ([2]; strain ATCC 25922, 18 hours at 35° C.): 32 µg/mL (≈ 21.5 µM)
- MIC Escherichia coli (GC 4559) ([2]; strain GC 4559, 18 hours at 35° C.): 16 µg/mL (≈ 10.8 µM)
- MIC Escherichia coli (GC 4560) ([2]; strain GC 4560, 18 hours at 35° C.): 0.5 µg/mL (≈ 0.336 µM)
- MIC Enterococcus faecalis (ATCC 29212) ([3]; inoculum 5×10^5 CFU/mL): 1 µg/mL (≈ 0.672 µM)
- MIC Enterococcus faecalis (GC 2242) ([3]; inoculum 5×10^5 CFU/mL): 2 µg/mL (≈ 1.34 µM)
- MIC Enterococcus faecium (GC 2243) ([3]; inoculum 5×10^5 CFU/mL): 2 µg/mL (≈ 1.34 µM)
- MIC Enterococcus faecalis (GC 2691) ([3]; inoculum 5×10^5 CFU/mL): 2 µg/mL (≈ 1.34 µM)
- MIC Enterococcus faecalis (GC 3059) ([3]; inoculum 5×10^5 CFU/mL): 2 µg/mL (≈ 1.34 µM)
- MIC Enterococcus faecalis (GC 4552) ([3]; inoculum 5×10^5 CFU/mL): 2 µg/mL (≈ 1.34 µM)
- MIC Enterococcus faecalis (GC 4553) ([3]; inoculum 5×10^5 CFU/mL): 2 µg/mL (≈ 1.34 µM)
- MIC Enterococcus faecalis (GC 4554) ([3]; inoculum 5×10^5 CFU/mL): 2 µg/mL (≈ 1.34 µM)
- MIC Enterococcus faecium (GC 4556) ([3]; inoculum 5×10^5 CFU/mL): 1 µg/mL (≈ 0.672 µM)
- MIC Enterococcus faecium (GC 4557) ([3]; inoculum 5×10^5 CFU/mL): 2 µg/mL (≈ 1.34 µM)
- MIC Enterococcus avium (GC 4558) ([3]; inoculum 5×10^5 CFU/mL): 1 µg/mL (≈ 0.672 µM)
- MIC Enterococcus faecalis (GC 6189) ([3]; inoculum 5×10^5 CFU/mL): 1 µg/mL (≈ 0.672 µM)
- MIC Enterococcus faecalis (ATCC 29212) [3]: 1 µg/mL (≈ 0.672 µM)
- MIC Enterococcus faecalis (GC 2242) [3]: 2 µg/mL (≈ 1.34 µM)
- MIC Enterococcus faecium (GC 2243) [3]: 2 µg/mL (≈ 1.34 µM)
- MIC Enterococcus faecalis (GC 2691) [3]: 2 µg/mL (≈ 1.34 µM)
- MIC Enterococcus faecalis (GC 3059) [3]: 2 µg/mL (≈ 1.34 µM)
- MIC Enterococcus faecalis (GC 4552) [3]: 2 µg/mL (≈ 1.34 µM)
- MIC Enterococcus faecalis (GC 4553) [3]: 2 µg/mL (≈ 1.34 µM)
- MIC Enterococcus faecalis (GC 4554) [3]: 2 µg/mL (≈ 1.34 µM)
- MIC Enterococcus faecium (GC 4556) [3]: 1 µg/mL (≈ 0.672 µM)
- MIC Enterococcus faecium (GC 4557) [3]: 2 µg/mL (≈ 1.34 µM)
- MIC Enterococcus avium (GC 4558) [3]: 1 µg/mL (≈ 0.672 µM)
- MIC Enterococcus faecalis (GC 6189) [3]: 1 µg/mL (≈ 0.672 µM)
- MIC Streptococcus pneumoniae (ATCC 6301) ([4]; inoculum 5×10^5 CFU/mL): <0.12 µg/mL
- MIC Streptococcus pneumoniae (GC 1894) ([4]; inoculum 5×10^5 CFU/mL): <0.12 µg/mL
- MIC Streptococcus pyogenes (GC 4563) ([4]; inoculum 5×10^5 CFU/mL): <0.12 µg/mL
- MIC Streptococcus agalactiae (GC 4564) ([4]; inoculum 5×10^5 CFU/mL): <0.12 µg/mL
- MIC Streptococcus pneumoniae (GC 4565) ([4]; inoculum 5×10^5 CFU/mL): <0.12 µg/mL
- MIC Streptococcus pneumoniae (ATCC 6301) [4]: <0.12 µg/mL
- MIC Streptococcus pneumoniae (GC 1894) [4]: <0.12 µg/mL
- MIC Streptococcus pyogenes (GC 4563) [4]: <0.12 µg/mL
- MIC Streptococcus agalactiae (GC 4564) [4]: <0.12 µg/mL
- MIC Streptococcus pneumoniae (GC 4565) [4]: <0.12 µg/mL
SMILES: CC(c1ccccc1)C1NC(=O)CNC(=O)C(CO)NC(=O)C(C(O)C2CNC(=N)N2C2OC(CO)C(O)C(O)C2O)NC(=O)C(C(O)C2CNC(=N)N2)NC(=O)C(Cc2ccc(OC3OC(CO)C(OC4OC5COC(c6ccc(C(=O)c7ccccc7)cc6)OC5C(O)C4O)C(O)C3O)cc2)NC1=O (centres unmarked) [Example 173]
- MIC Staphylococcus haemolyticus (GC 4546) ([1]; strain GC 4546): 1 µg/mL (≈ 0.672 µM)
